# Assay results: ChEMBL document CHEMBL5131515, “Identification of Pyridinyltriazine Derivatives as Potent panFGFR Inhibitors against Gatekeeper Mutants for Overcoming Drug Resistance” (J Med Chem, 2022)
# How the values were obtained:
# BaF3 [1] = test: Antiproliferative activity against mouse BaF3 cells harboring TEL-FGFR4 N535K mutant assessed as cell growth inhibition by CellTiter-Glo assay; assay type: functional
# [2] = biological target: Fibroblast growth factor receptor 3 (Homo sapiens, UniProt P22607, K650E)
# [3] = Antiproliferative activity against mouse BaF3 cells assessed as cell growth inhibition by CellTiter-Glo assay
# [4] = biological target: Fibroblast growth factor receptor 2 (Homo sapiens, UniProt P21802); test: Inhibition of wild-type FGFR2 (unknown origin) by radiometric kinase activity assay
# BaF3 [5] = test: Antiproliferative activity against mouse BaF3 cells harboring TEL-FGFR4 V550E mutant assessed as cell growth inhibition by CellTiter-Glo assay; assay type: functional
# [6] = biological target: Fibroblast growth factor receptor 3 (Homo sapiens, UniProt P22607); test: Inhibition of wild-type FGFR3 (unknown origin) by radiometric kinase activity assay
# J82 = test: Antiproliferative activity against human J82 cells harboring FGFR3 K652E mutant assessed as cell growth inhibition by CellTiter-Glo assay; assay type: functional
# BaF3 [7] = test: Antiproliferative activity against mouse BaF3 cells harboring TEL-FGFR3 assessed as cell growth inhibition by CellTiter-Glo assay; assay type: functional
# BaF3 [8] = test: cells; assay type: functional; settings: Mus musculus
# [9] = biological target: Fibroblast growth factor receptor 4 (Homo sapiens, UniProt P22455); test: Inhibition of wild-type FGFR4 (unknown origin) by radiometric kinase activity assay
# KMS-11 = test: Antiproliferative activity against human KMS-11 cells harboring FGFR3 Y373C mutant assessed as cell growth inhibition by CellTiter-Glo assay; assay type: functional
# [10] = biological target: Fibroblast growth factor receptor 2 (Homo sapiens, UniProt P21802, N549H)
# [11] = biological target: Fibroblast growth factor receptor 3 (Homo sapiens, UniProt P22607, V555M)
# AN3-CA = test: Antiproliferative activity against human AN3-CA cells harboring FGFR2 K310R/N549K mutant assessed as cell growth inhibition by CellTiter-Glo assay; assay type: functional
# [12] = test system: Fibroblast growth factor receptor 2 (Homo sapiens), P21802 [V564F]; test: Inhibition of FGFR2 V564F mutant (unknown origin) at 10 uM by radiometric kinase activity assay relative to control
# [13] = test system: Fibroblast growth factor receptor 3 (Homo sapiens), P22607 [V555M]; test: Inhibition of FGFR3 V555M mutant (unknown origin) at 10 uM by radiometric kinase activity assay relative to control
# [14] = biological target: Fibroblast growth factor receptor 2 (Homo sapiens, UniProt P21802, V564F)
# Description: Inhibition of FGFR2 V564F mutant (unknown origin) by radiometric kinase activity assay
# [15] = biological target: Fibroblast growth factor receptor 3 (Homo sapiens, UniProt P22607, K650M)
# Sequence of Fibroblast growth factor receptor 3 (Homo sapiens, UniProt P22607, K650M) (P22607 23-806 K650M limits assumed): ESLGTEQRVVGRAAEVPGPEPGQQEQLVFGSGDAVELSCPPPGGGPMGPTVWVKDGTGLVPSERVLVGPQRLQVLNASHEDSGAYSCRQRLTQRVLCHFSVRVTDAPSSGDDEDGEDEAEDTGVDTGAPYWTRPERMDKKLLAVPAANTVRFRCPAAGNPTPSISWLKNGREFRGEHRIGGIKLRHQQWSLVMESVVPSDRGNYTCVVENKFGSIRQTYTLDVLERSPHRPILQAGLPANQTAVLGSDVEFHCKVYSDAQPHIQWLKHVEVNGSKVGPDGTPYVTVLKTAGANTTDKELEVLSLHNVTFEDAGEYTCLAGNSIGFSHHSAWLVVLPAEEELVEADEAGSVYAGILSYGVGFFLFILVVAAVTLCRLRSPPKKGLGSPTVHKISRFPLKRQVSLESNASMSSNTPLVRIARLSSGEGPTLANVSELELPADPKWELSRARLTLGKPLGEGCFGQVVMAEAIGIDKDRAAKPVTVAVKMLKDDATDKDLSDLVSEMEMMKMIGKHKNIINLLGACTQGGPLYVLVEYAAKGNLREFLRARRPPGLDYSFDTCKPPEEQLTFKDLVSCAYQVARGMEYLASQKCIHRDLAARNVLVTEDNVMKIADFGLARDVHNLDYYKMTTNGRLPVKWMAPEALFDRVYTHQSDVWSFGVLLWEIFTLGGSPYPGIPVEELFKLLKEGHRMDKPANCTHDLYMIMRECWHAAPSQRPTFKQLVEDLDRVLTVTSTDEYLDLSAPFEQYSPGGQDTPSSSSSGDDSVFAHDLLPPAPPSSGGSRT
# Sequence of Fibroblast growth factor receptor 3 (Homo sapiens, UniProt P22607) (P22607 whole entry): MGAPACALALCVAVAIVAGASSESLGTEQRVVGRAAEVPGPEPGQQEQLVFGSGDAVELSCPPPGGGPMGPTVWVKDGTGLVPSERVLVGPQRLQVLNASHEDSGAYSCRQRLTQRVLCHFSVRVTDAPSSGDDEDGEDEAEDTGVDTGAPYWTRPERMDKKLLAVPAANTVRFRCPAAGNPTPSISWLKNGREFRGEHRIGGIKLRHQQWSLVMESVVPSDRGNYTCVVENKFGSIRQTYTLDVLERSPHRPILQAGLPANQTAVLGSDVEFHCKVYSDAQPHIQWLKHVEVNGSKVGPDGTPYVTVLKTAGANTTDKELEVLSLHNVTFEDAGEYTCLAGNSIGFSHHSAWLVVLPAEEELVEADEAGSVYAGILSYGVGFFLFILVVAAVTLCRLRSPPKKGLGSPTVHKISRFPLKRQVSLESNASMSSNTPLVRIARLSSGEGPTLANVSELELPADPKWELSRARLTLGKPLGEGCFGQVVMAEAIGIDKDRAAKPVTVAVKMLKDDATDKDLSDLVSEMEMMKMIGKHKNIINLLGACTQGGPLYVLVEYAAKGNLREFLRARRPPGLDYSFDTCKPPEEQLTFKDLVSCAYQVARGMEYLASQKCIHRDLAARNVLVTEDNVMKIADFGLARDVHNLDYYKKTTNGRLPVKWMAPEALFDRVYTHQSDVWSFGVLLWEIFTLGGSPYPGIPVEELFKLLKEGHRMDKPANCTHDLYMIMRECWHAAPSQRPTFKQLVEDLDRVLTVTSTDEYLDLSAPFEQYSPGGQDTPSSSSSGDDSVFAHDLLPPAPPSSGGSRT
# Sequence of Fibroblast growth factor receptor 3 (Homo sapiens, UniProt P22607, V555M) (P22607 23-806 V555M limits assumed): as the sequence (P22607 23-806 K650M limits assumed) above, with V533M, M628K counted along it
# Sequence of Fibroblast growth factor receptor 3 (Homo sapiens), P22607 [V555M] (P22607 whole entry V555M): as the sequence (P22607 whole entry) above, with V555M counted along it
# Sequence of Fibroblast growth factor receptor 2 (Homo sapiens), P21802 [V564F] (P21802 whole entry V564F): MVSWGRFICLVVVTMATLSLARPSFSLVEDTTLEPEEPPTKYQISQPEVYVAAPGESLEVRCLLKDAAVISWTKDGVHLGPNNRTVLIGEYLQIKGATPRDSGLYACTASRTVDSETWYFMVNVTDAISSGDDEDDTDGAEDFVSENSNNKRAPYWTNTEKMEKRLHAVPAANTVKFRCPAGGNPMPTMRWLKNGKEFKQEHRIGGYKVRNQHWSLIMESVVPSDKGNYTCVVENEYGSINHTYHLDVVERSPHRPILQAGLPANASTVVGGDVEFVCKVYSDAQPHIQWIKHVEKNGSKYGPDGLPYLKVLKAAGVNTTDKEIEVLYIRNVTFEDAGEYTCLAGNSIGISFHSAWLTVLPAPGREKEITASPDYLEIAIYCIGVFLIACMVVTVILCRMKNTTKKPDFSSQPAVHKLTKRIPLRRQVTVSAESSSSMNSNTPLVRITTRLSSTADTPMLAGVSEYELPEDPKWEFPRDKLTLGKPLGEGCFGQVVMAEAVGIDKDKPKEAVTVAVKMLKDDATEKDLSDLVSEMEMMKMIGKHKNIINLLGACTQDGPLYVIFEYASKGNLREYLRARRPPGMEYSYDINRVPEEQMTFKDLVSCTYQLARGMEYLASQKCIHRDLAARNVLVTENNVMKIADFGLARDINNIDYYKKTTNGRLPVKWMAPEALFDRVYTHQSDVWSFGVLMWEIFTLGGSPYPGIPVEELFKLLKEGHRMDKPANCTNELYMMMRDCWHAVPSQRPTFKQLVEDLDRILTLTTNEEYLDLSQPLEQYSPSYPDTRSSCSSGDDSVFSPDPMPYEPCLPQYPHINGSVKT
# Sequence of Fibroblast growth factor receptor 2 (Homo sapiens, UniProt P21802, V564F) (P21802 22-821 V564F limits assumed): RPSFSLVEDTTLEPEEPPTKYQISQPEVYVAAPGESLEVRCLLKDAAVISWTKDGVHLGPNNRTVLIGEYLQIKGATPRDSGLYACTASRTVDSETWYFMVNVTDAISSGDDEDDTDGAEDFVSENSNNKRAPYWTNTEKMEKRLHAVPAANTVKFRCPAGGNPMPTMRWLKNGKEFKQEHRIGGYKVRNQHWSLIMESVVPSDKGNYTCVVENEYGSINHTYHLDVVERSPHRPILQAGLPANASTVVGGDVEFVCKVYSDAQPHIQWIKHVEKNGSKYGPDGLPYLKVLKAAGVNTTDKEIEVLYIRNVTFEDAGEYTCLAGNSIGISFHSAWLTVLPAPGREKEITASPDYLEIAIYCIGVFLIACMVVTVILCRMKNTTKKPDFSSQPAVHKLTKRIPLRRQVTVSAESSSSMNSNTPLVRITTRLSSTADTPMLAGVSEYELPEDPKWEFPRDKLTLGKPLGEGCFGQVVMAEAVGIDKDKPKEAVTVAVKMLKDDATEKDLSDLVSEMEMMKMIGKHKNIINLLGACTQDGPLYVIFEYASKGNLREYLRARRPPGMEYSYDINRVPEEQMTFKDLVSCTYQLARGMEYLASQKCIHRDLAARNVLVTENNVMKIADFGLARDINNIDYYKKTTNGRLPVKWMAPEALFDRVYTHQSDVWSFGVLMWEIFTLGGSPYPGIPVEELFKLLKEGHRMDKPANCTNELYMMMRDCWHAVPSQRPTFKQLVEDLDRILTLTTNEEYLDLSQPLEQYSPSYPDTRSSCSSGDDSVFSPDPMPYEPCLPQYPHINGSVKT
# Sequence of Fibroblast growth factor receptor 2 (Homo sapiens, UniProt P21802, N549H) (P21802 22-821 N549H limits assumed): as the sequence (P21802 22-821 V564F limits assumed) above, with N528H, F543V counted along it
# Sequence of Fibroblast growth factor receptor 2 (Homo sapiens, UniProt P21802) (P21802 whole entry): as the sequence (P21802 whole entry V564F) above, with F564V counted along it
# Sequence of Fibroblast growth factor receptor 4 (P22455 whole entry): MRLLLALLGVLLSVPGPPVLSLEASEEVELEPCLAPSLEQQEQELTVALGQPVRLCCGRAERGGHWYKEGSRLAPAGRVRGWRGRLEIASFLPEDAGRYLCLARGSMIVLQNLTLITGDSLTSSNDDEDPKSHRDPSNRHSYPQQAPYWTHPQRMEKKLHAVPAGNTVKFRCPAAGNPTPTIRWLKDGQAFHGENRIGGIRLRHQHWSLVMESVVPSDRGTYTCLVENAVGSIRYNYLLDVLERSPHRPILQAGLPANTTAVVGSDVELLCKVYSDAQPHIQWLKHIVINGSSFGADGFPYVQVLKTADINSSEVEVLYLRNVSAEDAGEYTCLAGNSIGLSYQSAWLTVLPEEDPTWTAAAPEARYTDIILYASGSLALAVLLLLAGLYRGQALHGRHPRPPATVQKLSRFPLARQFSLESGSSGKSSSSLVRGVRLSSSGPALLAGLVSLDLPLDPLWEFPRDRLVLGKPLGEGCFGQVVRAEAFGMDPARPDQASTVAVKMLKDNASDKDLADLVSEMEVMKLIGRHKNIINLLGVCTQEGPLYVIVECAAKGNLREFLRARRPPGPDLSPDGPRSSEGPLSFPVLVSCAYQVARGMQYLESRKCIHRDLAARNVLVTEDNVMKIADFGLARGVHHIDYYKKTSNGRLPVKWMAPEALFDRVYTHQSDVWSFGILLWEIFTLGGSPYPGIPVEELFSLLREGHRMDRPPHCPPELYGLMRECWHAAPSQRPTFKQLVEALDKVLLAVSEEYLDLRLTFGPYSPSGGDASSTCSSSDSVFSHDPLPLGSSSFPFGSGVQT
# Sequence of Fibroblast growth factor receptor 3 (Homo sapiens, UniProt P22607, K650E) (P22607 23-806 K650E limits assumed): as the sequence (P22607 23-806 K650M limits assumed) above, with M628E counted along it
Compound,GI50 (BaF3 [1]),IC50 [2],GI50 ([3]; BaF3 cells),IC50 [4],GI50 (BaF3 [5]),IC50 [6],GI50 (J82),GI50 (BaF3 [7]),GI50 (BaF3 [8]),IC50 [9],GI50 (KMS-11),IC50 [10],IC50 [11],GI50 (AN3-CA),inhibition [12],inhibition [13],IC50 [14],IC50 [15],GI50 ([3]; baf3)
CCN1CCN(c2ccc(Nc3cc(-c4cccnc4Nc4c(Cl)c(OC)cc(OC)c4Cl)ncn3)cc2)CC1,3370 nM,8.55 nM,3250 nM,1.83 nM,3200 nM,2.86 nM,4290 nM,8 nM,2000 nM,50.3 nM,479 nM,6.06 nM,464 nM,263 nM,,,,,
COc1cc(OC)c(Cl)c(Nc2ncccc2-c2ncnc(NCCN(C)C)n2)c1Cl,,,> 5000 nM,,,839 nM,11200 nM,4040 nM,> 5000 nM,,3570 nM,368 nM,,1940 nM,< 50%,< 50%,,,
COc1cc(OC)c(Cl)c(Nc2ncccc2-c2ncnc(Nc3cnn(CCCN(C)C)c3)n2)c1Cl,,,2730 nM,,,1.19 nM,510 nM,5 nM,897 nM,,189 nM,3.96 nM,319 nM,421 nM,,,1110 nM,,
COc1cc(OC)c(Cl)c(Nc2ncccc2-c2ncnc(Nc3cnn(C4CCOCC4)c3)n2)c1Cl,,,> 5000 nM,,,2.51 nM,6230 nM,5 nM,3160 nM,,1380 nM,13.8 nM,1170 nM,105 nM,,,2770 nM,,
CCN1CCN(c2cccc(Nc3ncnc(-c4cccnc4Nc4c(Cl)c(OC)cc(OC)c4Cl)n3)c2)CC1,1690 nM,< 0.5 nM,3630 nM,< 0.5 nM,994 nM,0.58 nM,1110 nM,18 nM,686 nM,101 nM,190 nM,0.6 nM,134 nM,85 nM,,,578 nM,44.3 nM,
COc1cc(OC)c(Cl)c(Nc2ncccc2-c2ncnc(Nc3cnn(C)c3)n2)c1Cl,,,> 5000 nM,,,2.41 nM,2320 nM,5 nM,731 nM,,315 nM,< 0.5 nM,163 nM,31 nM,,,2840 nM,,
C=CCn1cc(Nc2ncnc(-c3cccnc3Nc3c(Cl)c(OC)cc(OC)c3Cl)n2)cn1,,,> 5000 nM,,,1.41 nM,991 nM,10 nM,1820 nM,,341 nM,26 nM,1710 nM,18800 nM,,,3090 nM,,
COc1cc(N2C[C@@H](C)N[C@@H](C)C2)ccc1Nc1ncnc(-c2cccnc2Nc2c(Cl)c(OC)cc(OC)c2Cl)n1,,,2730 nM,,,23.9 nM,3330 nM,286 nM,2710 nM,,872 nM,32.9 nM,,818 nM,,< 50%,3560 nM,,
COc1cc(OC)cc(N(CCNC(C)C)c2ccc3ncc(-c4cnn(C)c4)nc3c2)c1 [ERDAFITINIB],4010 nM,,,,> 5000 nM,,3800 nM,5 nM,761 nM,,390 nM,,,48 nM,,,,,> 5000 nM
COc1cc(OC)c(Cl)c(Nc2ncccc2-c2ncnc(Nc3ccc(N4CCC(O)CC4)cc3)n2)c1Cl,,,> 5000 nM,,,8.29 nM,8250 nM,40 nM,3880 nM,,1270 nM,6.05 nM,1810 nM,117 nM,,,2160 nM,,
COc1cc(OC)c(Cl)c(Nc2ncccc2-c2ncnc(N)n2)c1Cl,,,> 5000 nM,,,11.2 nM,6560 nM,276 nM,> 5000 nM,,3270 nM,31.4 nM,,753 nM,< 50%,< 50%,,,
COc1cc(N2CCN(C)CC2)ccc1Nc1ncnc(-c2cccnc2Nc2c(Cl)c(OC)cc(OC)c2Cl)n1,,,2790 nM,,,20.3 nM,7260 nM,282 nM,2130 nM,,730 nM,75.3 nM,7750 nM,689 nM,,,2640 nM,,
COc1cc(OC)c(Cl)c(Nc2ncccc2-c2ncnc(Nc3ccc(N4CCN(C(C)=O)CC4)cc3)n2)c1Cl,,,> 5000 nM,,,8.05 nM,6010 nM,30 nM,3020 nM,,1500 nM,4.49 nM,1120 nM,63 nM,,,3010 nM,,
COc1cccc(Nc2ncnc(-c3cccnc3Nc3c(Cl)c(OC)cc(OC)c3Cl)n2)c1,,,> 5000 nM,,,9.81 nM,4880 nM,30 nM,> 5000 nM,,895 nM,6.36 nM,,202 nM,< 50%,< 50%,,,
COc1cc(OC)c(Cl)c(Nc2ncccc2-c2ncnc(Nc3ccc(N4CCOCC4)cc3)n2)c1Cl,,,> 5000 nM,,,16 nM,22400 nM,393 nM,> 5000 nM,,12200 nM,37.7 nM,,1130 nM,< 50%,< 50%,,,
COc1cc(OC)c(Cl)c(Nc2ncccc2-c2ncnc(Nc3ccccc3)n2)c1Cl,,,> 5000 nM,,,4.58 nM,3620 nM,16 nM,> 5000 nM,,1420 nM,2.51 nM,,136 nM,< 50%,< 50%,,,
COc1cc(OC)c(Cl)c(Nc2ncccc2-c2ncnc(Nc3ccc(N4CCOCC4)nc3)n2)c1Cl,,,> 5000 nM,,,8.62 nM,11500 nM,664 nM,> 5000 nM,,2020 nM,3.09 nM,4060 nM,781 nM,< 50%,,,,
CCN1C(=O)N(c2c(F)c(OC)cc(OC)c2F)Cc2cnc3[nH]c(CN4CCOCC4)cc3c21 [PEMIGATINIB],4500 nM,,> 5000 nM,,> 5000 nM,,4290 nM,5 nM,2070 nM,,232 nM,,,132 nM,,,,,
COc1cc(OC)c(Cl)c(Nc2ncccc2-c2ncnc(Nc3ccc(N(C)C)cc3)n2)c1Cl,,,> 5000 nM,,,15 nM,14800 nM,164 nM,> 5000 nM,,> 50000 nM,14.7 nM,,591 nM,< 50%,< 50%,,,
